Measurements reported in PMC8231992, “Protease Substrate-Independent Universal Assay for Monitoring Digestion of Native Unmodified Proteins” (International Journal of Molecular Sciences, 2021).

Target: T1, papain (Carica papaya, UniProt P00784)
T1 sequence (P00784 134-345): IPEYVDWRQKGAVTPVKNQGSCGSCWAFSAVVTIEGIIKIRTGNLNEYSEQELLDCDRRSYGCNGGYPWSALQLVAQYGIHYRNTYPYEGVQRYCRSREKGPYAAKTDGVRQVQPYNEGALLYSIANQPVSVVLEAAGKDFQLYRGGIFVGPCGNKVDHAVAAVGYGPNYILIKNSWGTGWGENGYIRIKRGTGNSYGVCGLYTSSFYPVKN
Assay: protein-probe time-resolved luminescence digestion assay, heat-denatured carbonic anhydrase substrate ([…] with native substrate)
Type: biochemical

IC50: 8.9 ± 0.9 nM
Compound: CC(C)C[C@H](NC(=O)[C@H]1O[C@@H]1C(=O)O)C(=O)NCCCCN=C(N)N [E-64]
